From the supplement of paper PMC4932681
Values joined by “and” are separate entries in the source; they are usually repeats but may differ in a detail not shown here. Identical values can stand only once.

How the values were obtained:
BT-474 Tam2 [1] = test: drug sensitivity score (DSS) (DSS (dimensionless)); higher = more sensitive; extreme values may be limits of the assay; settings: 4-OH-tamoxifen in medium 1 µM; 72 h
Method in brief: (§1)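 Breast cancer cell lines and their resistant derivatives were seeded into 384-well plates holding FO2Baq library drugs at five concentrations spanning a 10 000-fold range. Resistant lines were in medium with 1 μM of the selecting drug. Cells were incubated 72 h at 37 °C, and CellTiter-Glo viability was read on a PHERAstar and normalised to vehicle-only and positive controls. Drug sensitivity score, relative IC50 (curve midpoint) and top-dose inhibition came from logistic dose–response fits (Breeze pipeline).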

ZR-75-1 Tam1 [2] = test: as above; settings: 4-OH-tamoxifen in medium 1 µM; 72 h
Method in brief: as §1

T-47D Tam1 [3] = test: as above; settings: 4-OH-tamoxifen in medium 1 µM; 72 h
Method in brief: as §1

BT-474 [4] = test: as above; settings: 72 h
Method in brief: as §1

ZR-75-1 [5] = test: as above; settings: 72 h
Method in brief: as §1

BT-474 Tam1 [6] = test: as above; settings: 4-OH-tamoxifen in medium 1 µM; 72 h
Method in brief: as §1

MCF-7 Tam1 [7] = test: as above; settings: 4-OH-tamoxifen in medium 1 µM; 72 h
Method in brief: as §1

T-47D Tam2 [8] = test: as above; settings: 4-OH-tamoxifen in medium 1 µM; 72 h
Method in brief: as §1

T-47D [9] = test: as above; settings: 72 h
Method in brief: as §1

ZR-75-1 Tam2 [10] = test: as above; settings: 4-OH-tamoxifen in medium 1 µM; 72 h
Method in brief: as §1

MCF-7 [11] = test: as above; settings: 72 h
Method in brief: as §1

BT-474 Tam2 [12] = test: relative IC50 (midpoint of fitted logistic curve, plateau may be below 50% inhibition; CellTiter-Glo viability); higher = less potent; settings: 4-OH-tamoxifen in medium 1 µM; 72 h
Method in brief: as §1

ZR-75-1 Tam1 [13] = test: as above; settings: 4-OH-tamoxifen in medium 1 µM; 72 h
Method in brief: as §1

T-47D Tam1 [14] = test: as above; settings: 4-OH-tamoxifen in medium 1 µM; 72 h
Method in brief: as §1

BT-474 [15] = test: as above; settings: 72 h
Method in brief: as §1

ZR-75-1 [16] = test: as above; settings: 72 h
Method in brief: as §1

BT-474 Tam1 [17] = test: as above; settings: 4-OH-tamoxifen in medium 1 µM; 72 h
Method in brief: as §1

MCF-7 Tam1 [18] = test: as above; settings: 4-OH-tamoxifen in medium 1 µM; 72 h
Method in brief: as §1

T-47D Tam2 [19] = test: as above; settings: 4-OH-tamoxifen in medium 1 µM; 72 h
Method in brief: as §1

ZR-75-1 Tam2 [20] = test: as above; settings: 4-OH-tamoxifen in medium 1 µM; 72 h
Method in brief: as §1

MCF-7 [21] = test: as above; settings: 72 h
Method in brief: as §1

T-47D [22] = test: as above; settings: 72 h
Method in brief: as §1

Structure (SMILES)	drug sensitivity score (BT-474 Tam2 [1])	drug sensitivity score (ZR-75-1 Tam1 [2])	drug sensitivity score (T-47D Tam1 [3])	drug sensitivity score (BT-474 [4]; 4-OH-tamoxifen in medium 0 µM)	drug sensitivity score (BT-474 [4]; 4-OH-tamoxifen in medium 1 µM)	drug sensitivity score (ZR-75-1 [5]; 4-OH-tamoxifen in medium 0 µM)	drug sensitivity score (ZR-75-1 [5]; 4-OH-tamoxifen in medium 1 µM)	drug sensitivity score (BT-474 Tam1 [6])	drug sensitivity score (MCF-7 Tam1 [7])	drug sensitivity score (T-47D Tam2 [8])	drug sensitivity score (T-47D [9]; 4-OH-tamoxifen in medium 0 µM)	drug sensitivity score (T-47D [9]; 4-OH-tamoxifen in medium 1 µM)	drug sensitivity score (ZR-75-1 Tam2 [10])	drug sensitivity score (MCF-7 [11]; 4-OH-tamoxifen in medium 0 µM)	drug sensitivity score (MCF-7 [11]; 4-OH-tamoxifen in medium 1 µM)	relative IC50 (BT-474 Tam2 [12])	relative IC50 (ZR-75-1 Tam1 [13])	relative IC50 (T-47D Tam1 [14])	relative IC50 (BT-474 [15]; 4-OH-tamoxifen in medium 0 µM)	relative IC50 (BT-474 [15]; 4-OH-tamoxifen in medium 1 µM)	relative IC50 (ZR-75-1 [16]; 4-OH-tamoxifen in medium 0 µM)	relative IC50 (ZR-75-1 [16]; 4-OH-tamoxifen in medium 1 µM)	relative IC50 (BT-474 Tam1 [17])	relative IC50 (MCF-7 Tam1 [18])	relative IC50 (T-47D Tam2 [19])	relative IC50 (ZR-75-1 Tam2 [20])	relative IC50 (MCF-7 [21]; 4-OH-tamoxifen in medium 0 µM)	relative IC50 (MCF-7 [21]; 4-OH-tamoxifen in medium 1 µM)	relative IC50 (T-47D [22]; 4-OH-tamoxifen in medium 0 µM)	relative IC50 (T-47D [22]; 4-OH-tamoxifen in medium 1 µM)
Cn1cncc1[C@@](N)(c1ccc(Cl)cc1)c1ccc2c(c1)c(-c1cccc(Cl)c1)cc(=O)n2C [Tipifarnib  (Zarnestra)]	7.37	7.03	6.21	4.27	6.99	6.34	7.52	7.78	3.82	4.67	3.25	0.489	6.76	11	12.6	1.41 µM	0.762 µM	0.862 µM	0.817 µM	1.65 µM	0.606 µM	0.405 µM	1.5 µM	1.51 µM	0.877 µM	0.808 µM	0.277 µM	0.329 µM	–	–
Cc1nc(Nc2ncc(C(=O)Nc3c(C)cccc3Cl)s2)cc(N2CCN(CCO)CC2)n1 [Dasatinib]	–	0	8.54 and 7.6	0	0	0	0	2.9 and 1.26	0	8.11 and 4.97	0	–	0	–	–	> 1 µM	> 1 µM	0.0103 µM and 0.0107 µM	> 1 µM	> 1 µM	> 1 µM	> 1 µM	0.13 µM and 0.374 µM	> 1 µM	0.00943 µM and 0.0164 µM	> 1 µM	> 1 µM	> 1 µM	> 1 µM	0.0416 µM
C=CCn1c(=O)c2cnc(Nc3ccc(N4CCN(C)CC4)cc3)nc2n1-c1cccc(C(C)(C)O)n1 [MK-1775]	2.77	0	4.22	2.85	4.97	0.795	0.472	3.33	0	4.14	2.12	1.93	0	7.89	5.16	0.857 µM	> 10 µM	1.12 µM	–	1.04 µM	–	–	1.78 µM	> 10 µM	1.08 µM	> 10 µM	0.369 µM	0.553 µM	–	–
COc1cc(CCc2cc(NC(=O)c3ccc(N4CC(C)NC(C)C4)cc3)n[nH]2)cc(OC)c1 (centres undefined) [AZD4547]	0	0	0	0	0	0	0	0	0	0	0	0	0	0	0	> 1 µM	> 1 µM	> 1 µM	> 1 µM	> 1 µM	> 1 µM	> 1 µM	–	> 1 µM	> 1 µM	> 1 µM	> 1 µM	> 1 µM	> 1 µM	> 1 µM
COc1cc2c(Oc3ccc4[nH]c(C)cc4c3F)ncnc2cc1OCCCN1CCCC1 [Cediranib (AZD2171, Recentin)]	0	0	0	0	2.04	0	0	0.271	0	0	0	0.609	0	0.0072	0	> 1 µM	> 1 µM	> 1 µM	> 1 µM	0.304 µM	> 1 µM	> 1 µM	–	> 1 µM	> 1 µM	> 1 µM	–	> 1 µM	> 1 µM	–
C[C@]12C=CC(=O)C=C1CC[C@@H]1[C@@H]2[C@@H](O)C[C@@]2(C)[C@H]1CC[C@]2(O)C(=O)CO [Prednisolone]	0	0	0	0	0	0	0	0	0	0	0	0	0	0.324	0.407	> 10 µM	> 10 µM	> 10 µM	> 10 µM	> 10 µM	> 10 µM	> 10 µM	> 10 µM	> 10 µM	> 10 µM	> 10 µM	–	–	> 10 µM	> 10 µM
CO[C@@H](C(=O)N1Cc2[nH]nc(NC(=O)c3ccc(N4CCN(C)CC4)cc3)c2C1)c1ccccc1	0	0	4.24	0	0	0	0	0	0	3.95	2.94	1.25	0	0	0	> 10 µM	> 10 µM	1.03 µM	> 10 µM	> 10 µM	> 10 µM	> 10 µM	> 10 µM	> 10 µM	0.833 µM	> 10 µM	> 10 µM	> 10 µM	–	–
Cc1cnc(NC(=O)Nc2cc(Br)c(C)cc2OC[C@@H]2CNCCO2)cn1	0	0	0	0	0	0	0	0	0	0	0	0	0	2.37	0.181	> 1 µM	> 1 µM	> 1 µM	> 1 µM	> 1 µM	> 1 µM	> 1 µM	> 1 µM	> 1 µM	> 1 µM	> 1 µM	–	–	> 1 µM	> 1 µM
